Assays:
Assay type in all cases: toxicity, cell-based
HEK-293T = test: Incucyte cell viability with HEK293T; conditions: human, 10 µM, compound concentration 10 uM
Fibroblast = test: Incucyte cell viability with human fibroblast; conditions: 10 µM, compound concentration 10 uM
U2OS = test: Incucyte cell viability with U2OS; conditions: human, 10 µM, compound concentration 10 uM
Note: unitless GR value; below 1 slowed growth and below 0 cell loss.

| SMILES | Growth Rate (HEK-293T; 0 h, replicate number 2) | Growth Rate (HEK-293T; 6 h, replicate number 2) | Growth Rate (HEK-293T; 12 h, replicate number 2) | Growth Rate (HEK-293T; 18 h, replicate number 2) | Growth Rate (HEK-293T; 24 h, replicate number 2) | Growth Rate (Fibroblast; 0 h, replicate number 2) | Growth Rate (Fibroblast; 6 h, replicate number 1) | Growth Rate (Fibroblast; 12 h, replicate number 2) | Growth Rate (Fibroblast; 18 h, replicate number 1) | Growth Rate (Fibroblast; 18 h, replicate number 2) | Growth Rate (Fibroblast; 24 h, replicate number 1) | Growth Rate (U2OS; 12 h, replicate number 1) | Growth Rate (U2OS; 12 h, replicate number 2) | Growth Rate (U2OS; 18 h, replicate number 1) | Growth Rate (Fibroblast; 6 h, replicate number 2) | Growth Rate (HEK-293T; 6 h, replicate number 1) | Growth Rate (HEK-293T; 12 h, replicate number 1) | Growth Rate (HEK-293T; 18 h, replicate number 1) | Growth Rate (HEK-293T; 24 h, replicate number 1) | Growth Rate (U2OS; 24 h, replicate number 1) | also measured |
| --- | --- | --- | --- | --- | --- | --- | --- | --- | --- | --- | --- | --- | --- | --- | --- | --- | --- | --- | --- | --- | --- |
| CCO[C@H](COc1ccc(C(F)(F)F)cc1)CSc1ccc(OCC(=O)[O-])c(C)c1.[Na+] | -0.95 | 0.55 | 0.82 | 0.72 | 0.68 | 0.62 | 0.27 | 0.87 | 0.93 | 0.97 | 0.93 | 0.94 | 0.8 | 0.96 | – | – | – | – | – | – | Growth Rate (HEK-293T; 0 h, replicate number 1): -0.25; Growth Rate (Fibroblast; 12 h, replicate number 1): 0.7; Growth Rate (U2OS; 0 h, replicate number 2): 0.56; Growth Rate (U2OS; 6 h, replicate number 2): 0.78; Growth Rate (U2OS; 18 h, replicate number 2): 0.92; Growth Rate (U2OS; 24 h, replicate number 2): 0.78 |
| COc1ccc(-c2c(-c3ccccc3)oc3ncnc(O[C@H](C)CCCCC(=O)O)c23)cc1 | 0.14 | – | – | – | – | – | 0.79 | 0.48 | – | 0.98 | 0.88 | 0.94 | – | – | -0.43 | – | – | – | – | – | Growth Rate (HEK-293T; 0 h, replicate number 1): 0.1; Growth Rate (Fibroblast; 0 h, replicate number 1): -1 |
| CN(C)C/C=C/C(=O)Nc1cccc(C(=O)Nc2ccc(Nc3nccc(-c4cccnc4)n3)cc2)c1 | 0.56 | -0.56 | -0.52 | -0.44 | -0.37 | 0.35 | -1 | -0.34 | – | -0.31 | – | 0.85 | 0.74 | 0.46 | 0.47 | -0.88 | -0.9 | -0.74 | -0.55 | 0.27 | Growth Rate (Fibroblast; 24 h, replicate number 2): -0.26; Growth Rate (U2OS; 0 h, replicate number 1): -0.34; Growth Rate (U2OS; 18 h, replicate number 2): 0.42; Growth Rate (U2OS; 24 h, replicate number 2): 0.13 |
| COC[C@@H](CC(C)C)NC1=N/C(=C\c2ccc3ncsc3c2)C(=O)N1C | 0.12 | 0.4 | 0.3 | 0.69 | 0.6 | – | -0.97 | 0.07 | 0.63 | 0.3 | – | 0.73 | 0.64 | 0.43 | 0.03 | 0.37 | -0.18 | 0.35 | 0.68 | 0.37 | Growth Rate (HEK-293T; 0 h, replicate number 1): 0.16; Growth Rate (Fibroblast; 24 h, replicate number 2): 0.51; Growth Rate (U2OS; 0 h, replicate number 1): 0.04; Growth Rate (U2OS; 18 h, replicate number 2): 0.37; Growth Rate (U2OS; 24 h, replicate number 2): 0.28 |
| Cc1cccc(CC(=O)N2CCc3c2ccc(-c2cn(C)c4ncnc(N)c24)c3F)n1 | – | 0.26 | 0.53 | 0.55 | 0.57 | – | 0.64 | 0.94 | 0.46 | 0.69 | 0.52 | 0.43 | – | 0.31 | 0.98 | 0.02 | 0.24 | 0.4 | 0.46 | 0.59 | Growth Rate (Fibroblast; 12 h, replicate number 1): 0.46; Growth Rate (Fibroblast; 24 h, replicate number 2): 0.58; Growth Rate (U2OS; 6 h, replicate number 1): -0.61; Growth Rate (U2OS; 18 h, replicate number 2): 0.97; Growth Rate (U2OS; 24 h, replicate number 2): 0.71 |
| O=C(Nc1ccc(Cl)nc1)c1ccc(Cl)cc1 | – | 0.16 | 0.63 | 0.53 | 0.65 | -0.9 | -0.32 | – | – | – | 0.54 | 0.95 | – | – | – | 0.33 | 0.71 | 0.59 | 0.63 | – | Growth Rate (Fibroblast; 0 h, replicate number 1): -0.21; Growth Rate (U2OS; 0 h, replicate number 1): -0.12; Growth Rate (U2OS; 0 h, replicate number 2): -0.39 |
| CCC(=O)O[C@@H](OP(=O)(CCCCc1ccccc1)CC(=O)N1C[C@H](C2CCCCC2)C[C@H]1C(=O)[O-])C(C)C.[Na+] (some centres not stated) | -1 | -0.23 | 0.04 | 0.29 | 0.49 | -0.2 | – | – | – | – | – | 0.78 | – | 0.78 | 0.94 | 0.41 | 0.66 | 0.77 | 0.84 | 0.77 | Growth Rate (Fibroblast; 12 h, replicate number 1): 0.72; Growth Rate (U2OS; 0 h, replicate number 1): 0.02; Growth Rate (U2OS; 6 h, replicate number 1): 0.56 |
| CN1C(=O)c2c(nn(Cc3ccc(-c4cccc(F)n4)cc3)c2Nc2ccccc2)N2C1=N[C@@H]1CCC[C@@H]12.O=P(O)(O)O [LENRISPODUN PHOSPHATE] | 0.18 | – | 0.71 | 0.79 | 0.83 | – | – | 0.65 | – | 0.94 | – | 0.5 | – | 0.67 | – | – | – | – | – | 0.68 | Growth Rate (HEK-293T; 0 h, replicate number 1): 0.85; Growth Rate (Fibroblast; 0 h, replicate number 1): -1; Growth Rate (U2OS; 0 h, replicate number 1): 0.51; Growth Rate (U2OS; 6 h, replicate number 1): 0.84 |
| CNC(=O)COc1cc2cc(Nc3nc(N4C[C@H](C)C[C@H](C)C4)ncc3Cl)ccc2n(C)c1=O | 0.7 | – | – | – | – | -0.82 | 0.72 | – | 0.7 | – | 0.99 | – | 0.85 | 0.92 | – | – | – | – | – | 0.95 | Growth Rate (HEK-293T; 0 h, replicate number 1): 0.06; Growth Rate (Fibroblast; 12 h, replicate number 1): 0.96; Growth Rate (U2OS; 0 h, replicate number 2): 0.58; Growth Rate (U2OS; 6 h, replicate number 1): 0.85 |
| CC(C)(C)c1cc(C(C)(C)C)c(NC(=O)c2c[nH]c3ccccc3c2=O)cc1O [IVACAFTOR] | 0.3 | 0.98 | 0.69 | 0.75 | 0.72 | -0.84 | – | – | 0.28 | 0.65 | – | – | 0.7 | – | 0.55 | 0.19 | 0.71 | 0.65 | 0.92 | 0.98 | Growth Rate (Fibroblast; 24 h, replicate number 2): 0.91; Growth Rate (U2OS; 0 h, replicate number 2): 0.5; Growth Rate (U2OS; 18 h, replicate number 2): 0.92; Growth Rate (U2OS; 24 h, replicate number 2): 0.89 |
| COc1cc(-c2nn([C@H]3CC[C@H](N4CCN(C(C)=O)CC4)CC3)c3ncnc(N)c23)ccc1NC(=O)c1cc2ccccc2n1C | – | -0.96 | -0.18 | 0.59 | 0.89 | – | -0.52 | 0.45 | -0.56 | – | -0.45 | 0.44 | 0.61 | 0.44 | -0.77 | -0.95 | -0.39 | 0.38 | 0.69 | 0.44 | Growth Rate (Fibroblast; 0 h, replicate number 1): -1; Growth Rate (Fibroblast; 12 h, replicate number 1): -0.69; Growth Rate (U2OS; 0 h, replicate number 1): -0.86; Growth Rate (U2OS; 0 h, replicate number 2): 0.2; Growth Rate (U2OS; 6 h, replicate number 1): 0.32; Growth Rate (U2OS; 6 h, replicate number 2): 0.56; Growth Rate (U2OS; 18 h, replicate number 2): 0.95; Growth Rate (U2OS; 24 h, replicate number 2): 0.91 |

— ChEMBL document CHEMBL5303304, “EUbOPEN Chemogenomics Library - IncuCyte” (2023)
